According to patent US8809384B2, “Azaspirodecanone compounds” (Hoffmann-La Roche Inc., priority 2011, dated 2014):

Molecular target: T1, human HSL (Homo sapiens, UniProt Q05469)
T1 construct: generate a full length human HSL ORF with a 3′-His6 tag; made in house; host or cells: High 5 insect cells (baculovirus, pFast-BAC)
T1 sequence (Q05469 1-1076): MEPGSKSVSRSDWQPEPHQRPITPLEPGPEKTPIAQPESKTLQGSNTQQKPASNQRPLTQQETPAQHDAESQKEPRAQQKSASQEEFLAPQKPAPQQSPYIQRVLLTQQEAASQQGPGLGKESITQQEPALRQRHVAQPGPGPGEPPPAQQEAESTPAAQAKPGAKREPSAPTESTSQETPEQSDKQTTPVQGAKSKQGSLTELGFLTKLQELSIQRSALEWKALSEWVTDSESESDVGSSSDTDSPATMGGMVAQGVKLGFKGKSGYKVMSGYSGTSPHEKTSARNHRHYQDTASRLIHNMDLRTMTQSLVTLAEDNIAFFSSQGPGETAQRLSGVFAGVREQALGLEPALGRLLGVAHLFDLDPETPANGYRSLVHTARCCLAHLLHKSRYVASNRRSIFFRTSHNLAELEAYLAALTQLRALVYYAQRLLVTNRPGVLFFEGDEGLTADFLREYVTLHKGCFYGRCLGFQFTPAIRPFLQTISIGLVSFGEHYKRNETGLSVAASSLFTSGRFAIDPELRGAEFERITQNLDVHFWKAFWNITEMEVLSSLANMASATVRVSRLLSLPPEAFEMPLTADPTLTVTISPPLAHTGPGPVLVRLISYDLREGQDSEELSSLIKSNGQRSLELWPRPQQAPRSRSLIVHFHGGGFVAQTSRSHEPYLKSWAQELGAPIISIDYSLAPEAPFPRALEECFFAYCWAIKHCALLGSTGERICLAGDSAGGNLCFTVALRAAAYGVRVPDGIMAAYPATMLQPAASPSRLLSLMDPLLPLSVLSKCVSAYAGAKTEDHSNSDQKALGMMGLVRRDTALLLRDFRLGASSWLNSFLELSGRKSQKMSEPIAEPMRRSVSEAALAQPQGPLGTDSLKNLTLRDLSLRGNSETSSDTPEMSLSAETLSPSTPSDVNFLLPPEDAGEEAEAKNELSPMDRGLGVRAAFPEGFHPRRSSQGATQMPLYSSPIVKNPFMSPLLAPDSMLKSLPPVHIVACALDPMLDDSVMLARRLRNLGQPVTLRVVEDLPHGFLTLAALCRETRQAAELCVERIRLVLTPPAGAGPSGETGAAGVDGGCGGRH
Experiment: Human Hormone-Sensitive Lipase (HSL) enzyme inhibition assay (colorimetric, DMPT substrate)
Assay type: biochemical
Conditions: human full length HSL-His6, 2,3-dimercapto-1-propanol tributyrate substrate, 37° C., 20 minutes; read-out: HSL hum IC50
Procedure: Production of Human full length Hormone Sensitive Lipase-His^6: • 1) Cloning: cDNA was prepared from commercial human brain polyA+ RNA and used as a template in overlapping PCR to generate a full length human HSL ORF with a 3′-His6 tag. This full length insert was cloned into the pFast-BAC vector and the DNA-sequence of several single clones was verified. DNA from a correct full length clone with the 3′His6 tag was used to transform the E. coli strain DH10BAC. Resulting bacmid DNA was used to generate a titered baculovirus stock for protein generation. The sequence of the encoded HSL conforms to Swissprot entry Q05469, with the additional C-terminal His6-tag. • 2) Protein purification: Culture: 5.5 L, High 5 cells expressing human full length HSL-His^6, 48 hr., containing 25 μM E-64. Cell count: […], 90% viable. Cells were thawed. On ice, cells were suspended in Base Buffer containing 10% glycerol, 25 mM Tris-Cl, 300 mM NaCl, 10 mM imidazole, 10 mM 2-mercaptoethanol, 2 μg pepstatin/ml, 2 μg leupeptin/ml, 2 μg antipain/ml, pH 8.0 at 4° C. in a final volume of 475 ml with 3.75×10^7 cells/ml. […] was done at 3×30 sec., Lubrol PX was added to 0.2% final concentration followed by stirring for 15 min at 4° C. and centrifugation at 25 k×g, 60 min, 4° C. Soluble proteins were mixed with 60 ml of pre-washed and equilibrated Ni-NTA Agarose (Qiagen 30210) followed by tumbling end-over-end, 45 min., 4° C., centrifugation 1000 rpm 5 min and letting resin settle […]. Supernatant was removed, the resin washed in the centrifuge vessel using 5 volumes of Base Buffer containing 0.2% Lubrol PX. Centrifugation was done again, then the supernatant discarded. The resin was poured onto a 0.8 μm membrane in a disposable filter unit (Nalge 450-0080), and washed with 5 volumes of Base Buffer containing 0.2% Lubrol PX. It was then washed with 30 volumes of Base Buffer containing 60 mM imidazole pH 7.5 at 4° C. The protein was eluated with 5 volumes of 25 mM Tris-Cl, 300 mM NaCl, 200 mM imidazole, 10 mM 2-mercaptoethanol, pH 7.5 at 4° C. by tumbling resin with buffer end-over-end, 30 min., 4° C. The resin was captured on a 0.2 μm membrane disposable filter unit (Millipore SCGP U02 RE) and the eluate collected in the reservoir. The eluate was concentrated using a 30 k MWCO centrifugal filter device (Sartorius Vivascience Vivacell 100, VC1022), to 20 ml. It was then dialyzed overnight at 4° C., two times against 2 L of 10% glycerol, 25 mM Tris-Cl, 300 mM NaCl, 0.2 mM EDTA, 0.2 mM DTT, pH 7.5 at 4° C. The protein was filtered using a 0.22 μm disposable filter unit (Millipore SCGP00525). The protein concentration was calculated from absorbance at 280 nm, using 280=0.67 cm^−1 mg-1. Yield was 235 mg, total. The protein was stored at −80° C.
Human Hormone-Sensitive Lipase (HSL) Enzyme Inhibition Assay: • HSL enzyme activity was measured by a colorimetric assay using 2,3-dimercapto-1-propanol tributyrate (Aldrich, St. Louis, Mo.) as a substrate. Typically, 1.5 mM 2,3-dimercapto-1-propanol tributyrate (DMPT) in 100 mM MOPS, pH 7.2, 0.2 mg/ml fatty acid-free BSA was prepared by sonication at 4° C. to homogenous suspension. Test compounds (2 mM stock in DMSO) were diluted 3 fold in series in DMSO. Compound solutions were diluted 24 fold in 1.5 mM DMPT containing solution and 18 μl per well was added to 384-well microplates (Corning Costar). Twelve microliters per well of human HSL (15 μg/ml) was added and the reaction mixture was incubated at 37° C. for 20 minutes. Six microliters of 12 mM dithio-bis-(2-nitrobenzoic acid) (DTNB) in DMSO plus 1.2% SDS and 0.6% Triton X-100 were added and the mixture was incubated at room temperature for 15 minutes. Product production was monitored by reading absorbance at 405 nm on an Envision Reader (PerkinElmer Life and Analytical Sciences, Shelton, Conn.).

Compound	IC50 [nM]
CC1(C)CCC(=O)N1C[C@]1(O)CC[C@]2(CCN(c3ccc(C(F)(F)F)cc3)C2=O)CC1 [Example 1, (5α,8α)-8-((2,2-dimethyl-5-oxopyrrolidin-1-yl)methyl)-8-hydroxy-2-(4-(trifluoromethyl)phenyl)-2-azaspiro[4.5]decan-1-one]	14.9
CC(C)Oc1ccc(N2CC[C@]3(CC[C@@](O)(CN4C(=O)CCC4(C)C)CC3)C2=O)cc1 [Example 2, (5α,8α)-8-((2,2-dimethyl-5-oxopyrrolidin-1-yl)methyl)-8-hydroxy-2-(4-isopropoxyphenyl)-2-azaspiro[4.5]decan-1-one]	12.5
CC(C)Oc1ccc(N2CC[C@]3(CC[C@@](O)(CN4CCN(C)C4=O)CC3)C2=O)cc1 [Example 3, (5α,8α)-8-hydroxy-2-(4-isopropoxyphenyl)-8-((3-methyl-2-oxoimidazolidin-1-yl)methyl)-2-azaspiro[4.5]decan-1-one]	23.9
CC(C)Oc1ccc(N2CC[C@]3(CC[C@@](O)(CN4C(=O)CCC45CC5)CC3)C2=O)cc1 [Example 4, (5α,8α)-8-Hydroxy-2-(4-isopropoxy-phenyl)-8-(5-oxo-4-aza-spiro[2.4]hept-4-ylmethyl)-2-aza-spiro[4.5]decan-1-one]	11.4
CC(C)Oc1ccc(N2CC[C@]3(CC[C@@](O)(CN4CCOC4=O)CC3)C2=O)cc1 [Example 5, 3-(((5α,8α)-8-Hydroxy-2-(4-isopropoxyphenyl)-1-oxo-2-azaspiro[4.5]decan-8-yl)methyl)oxazolidin-2-one]	5.9
CC(C)Oc1ccc(N2CC[C@]3(CC[C@@](O)(CN4CC[C@@H](O)C4=O)CC3)C2=O)cc1 [Example 6, (5α,8α)-8-Hydroxy-8-(((R)-3-hydroxy-2-oxopyrrolidin-1-yl)methyl)-2-(4-isopropoxyphenyl)-2-azaspiro[4.5]decan-1-one]	60
CC(C)Oc1ccc(N2CC[C@]3(CC[C@@](O)(CN4CCN(C)C4=O)CC3)C2=O)cn1 [Example 7, (5α,8α)-8-Hydroxy-2-(6-isopropoxy-pyridin-3-yl)-8-(3-methyl-2-oxo-imidazolidin-1-ylmethyl)-2-aza-spiro[4.5]decan-1-one]	138
CC(C)Oc1ccc(N2CC[C@]3(CC[C@@](O)(CN4CCNC4=O)CC3)C2=O)cn1 [Example 8, (5α,8α)-8-hydroxy-2-(6-isopropoxypyridin-3-yl)-8-((2-oxoimidazolidin-1-yl)methyl)-2-azaspiro[4.5]decan-1-one]	300
CC1(C)CCC(=O)N1C[C@]1(O)CC[C@]2(CCN(c3ccc([C@@H](O)C(F)(F)F)cc3)C2=O)CC1 [Example 9, (5α,8α)-8-(2,2-Dimethyl-5-oxo-pyrrolidin-1-ylmethyl)-8-hydroxy-2-[4-((R)-2,2,2-trifluoro-1-hydroxy-ethyl)-phenyl]-2-aza-spiro[4.5]decan-1-one]	14.6
CN1CCN(C[C@]2(O)CC[C@]3(CCN(c4ccc([C@@H](O)C(F)(F)F)cc4)C3=O)CC2)C1=O [Example 10, (5α,8α)-8-Hydroxy-8-(3-methyl-2-oxo-imidazolidin-1-ylmethyl)-2-[4-((R)-2,2,2-trifluoro-1-hydroxy-ethyl)-phenyl]-2-aza-spiro[4.5]decan-1-one]	136
C[C@@H](Oc1ccc(N2CC[C@]3(CC[C@@](O)(CN4C(=O)CCC45CC5)CC3)C2=O)cc1)C(F)(F)F [Example 11, (5α,8α)-8-hydroxy-8-((5-oxo-4-azaspiro[2.4]heptan-4-yl)methyl)-2-(4-((R)-1,1,1-trifluoropropan-2-yloxy)phenyl)-2-azaspiro[4.5]decan-1-one]	7.1

Continued, values first:

IC50 [nM]	Compound
9.7	C[C@H](Oc1ccc(N2CC[C@]3(CC[C@@](O)(CN4C(=O)CCC45CC5)CC3)C2=O)cn1)C(F)(F)F [Example 12, (5α,8α)-8-hydroxy-8-((5-oxo-4-azaspiro[2.4]heptan-4-yl)methyl)-2-(6-((S)-1,1,1-trifluoropropan-2-yloxy)pyridin-3-yl)-2-azaspiro[4.5]decan-1-one]
7.5	O=C1CCC2(CC2)N1C[C@]1(O)CC[C@]2(CCN(c3ccc(OCC(F)(F)F)cc3)C2=O)CC1 [Example 13, (5α,8α)-8-Hydroxy-8-(5-oxo-4-aza-spiro[2.4]hept-4-ylmethyl)-2-[4-(2,2,2-trifluoro-ethoxy)-phenyl]-2-aza-spiro[4.5]decan-1-one]
990	O=C1OCC2(CC2)N1C[C@]1(O)CC[C@]2(CCN(c3ccc(OCC(F)(F)F)cc3)C2=O)CC1 [Example 15, (5α,8α)-8-Hydroxy-8-(5-oxo-6-oxa-4-aza-spiro[2.4]hept-4-ylmethyl)-2-[4-(2,2,2-trifluoro-ethoxy)-phenyl]-2-aza-spiro[4.5]decan-1-one]
150	O=C1OCCN1C[C@]1(O)CC[C@]2(CCN(c3ccc(OCC(F)(F)F)cc3)C2=O)CC1 [Example 16, (5α,8α)-8-Hydroxy-8-(2-oxo-oxazolidin-3-ylmethyl)-2-[4-(2,2,2-trifluoro-ethoxy)-phenyl]-2-aza-spiro[4.5]decan-1-one]
40	O=C1CCC2(CC2)N1C[C@]1(O)CC[C@]2(CCN(c3ccc([C@@H](O)C(F)(F)F)cc3)C2=O)CC1 [Example 17, (5α,8α)-8-Hydroxy-8-(5-oxo-4-aza-spiro[2.4]hept-4-ylmethyl)-2-[4-((R)-2,2,2-trifluoro-1-hydroxy-ethyl)-phenyl]-2-aza-spiro[4.5]decan-1-one]
